The nature of data set [1]: In vitro release of Ciprofloxacin from cast hydrophilic polyurethane film in phosphate buffer. Type of data set: physicochemical. To be noted: core loading 6.0 wt %, 37 C. How it is done: A cast film of polyurethane containing Ciprofloxacin was made by reacting hydrophilic polyurethane prepolymer (Urepol 1002A obtained from Envirochem) with distilled water. The reacting mixture was spread in a thin film over a glass petri dish. The film was cured overnight and dried to leave a thin film of polyurethane containing Ciprofloxacin. The resultant drug carrying film was further vacuum-dried. The drug loading was measured to be 0.06 gms per 1 gm of coated film, i.e. 6.0 wt %.
The drug carrying film was placed in phosphate buffer at 37 C and a pH of 7.4 and the Ciprofloxacin in vitro release was measured.

A short description of data set [2]: Immobilization of collagenase in composite foam polymer system. Particulars: composite foam (hydrophobic polyurethane scaffold with hydrophilic polyurethane coating).
Data set [3] can be described thus: In vitro release of Thio-TEPA from polyurethane-coated polyurethane foam substrate in phosphate buffer. To be noted: core loading 0.9 wt %, 37 C. Type of data set: physicochemical. The procedure:
A reticulated TDI/polyether based foam (SIF grade obtained from Foamex) was used as a scaffold or substrate. The foam substrate was 4″×4″ (10.2 cm×10.2 cm) square sample with a thickness of ¼″ or 0.635 cm with a volume of 65.5 cm^3 and weighed 1.2 g, giving a density of 0.0183 gms/cc. 2.42 grams of hydrophilic polyurethane prepolymer (Urepol 1002A obtained from Envirochem) and 64 milligrams of Thio-TEPA was diluted in 6 ml of DMF. The foam was dipped into the solution mixture of polyurethane prepolymer, Thio-TEPA and DMF. The Thio-TEPA containing solution mixture of polyurethane prepolymer and DMF was then distributed and spread over the foam substrate. During the spreading and distribution, it was ensured that solution mixture contacted the foam substrate from all sides and coated both the surface and internal pores of the foam substrate.
The foam substrate with coated solution mixture was held overnight below 8° C. The coating was cured by the reaction of the ambient moisture with the available reactive isocyanate in the prepolymer. After the overnight curing, the foam substrate with coated solution mixture was vacuum-dried to remove residual solvents to leave a coating of polyurethane containing Thio-TEPA.
The final weight of the foam substrate and the drug loaded coating was 3.24 gms. Density of the coated foam substrate was 0.0495 gms/cc. The drug loading was 0.009 gms per 1 gm of coated foam substrate, i.e. 0.9 wt %. The drug entrapment efficiency was 50% calculated from a final measures drug loading of 0.9 wt % and a theoretical drug loading of 1.8 wt %. The weight of the drug in the final coated foam substrate was 0.029 gms or 29 mgs with the drug density on the coated foam substrate being 0.44 mgs per cc.
The coated foam substrate was placed in phosphate buffer at 37 C, and a pH of 7.4 and the Thio-TEPA in vitro release was measured.

In the case of `O=C(O)c1cn(C2CC2)c2cc(N3CCNCC3)c(F)cc2c1=O` [Ciprofloxacin], in data set [1] (pH 7.4, Day 1), the “Cumulative Release, % at Day 1” value is recorded as 15.7%. Further, the “Cumulative Release, % at Day 3” value in data set [1] (pH 7.4, Day 3) is given as 16.8%. In addition, the “Cumulative Release, % at Day 4” value in data set [1] (pH 7.4, Day 4) is given as 29.28%.
On to collagenase, for which the “enzymatic activity after immobilization within the polymer system” value in data set [2] was “retain enzymatic activity”.
Turning to `S=P(N1CC1)(N1CC1)N1CC1` [Thio-Tepa, Thio-TEPA], the “Cumulative Release, % at Day 1” value in data set [3] (pH 7.4, Day 1) was determined as 11.9%. Besides, the “Cumulative Release, % at Day 3” value in data set [3] (pH 7.4, Day 3) turned out to be 43.7%. In data set [3] (pH 7.4, Day 6), the “Cumulative Release, % at Day 6” value is given as 66.6%.

The values above are taken from patent US20040260272A1, “Method and system for intravesicular delivery of therapeutic agents” (priority 2002, published 2004).
